Results published in patent US11905338B2, “Peptides for use as cell-penetrating peptides” (CENTRE NATIONAL DE LA RECHERCHE SCIENTIFIQUE, priority 2018, dated 2024).
Entries after “also recorded” stand apart in the source; their conditions may differ. Where no end group is shown, it is not given here. [ ]: non-standard residue; d: D form. Ahx = NCCCCCC(=O)O

Key:
[1] = test system: firefly luciferase (FLuc) in U87 cells; assay: Luciferase reporter gene silencing assay; type: cell-based, human; settings: for Incubation time for maximum and saturating FLuc silencing / Reduction of FLuc activity: 20 nM siFLuc; for Reduction in the luciferase activity in presence of serum: 10% serum, 15-20 nM siRNA (CPP1), 10-20 nM (CPP2); for Reduction of FLuc activity: 5 min incubation, then 36 h in medium; for Fold more active than C6M1-L in reduced luciferase expression / Fold more active than C6M1 in reduced luciferase expression: CPP=200 nM, siRNA=10 nM; for Luciferase knock-down at R=40 relative to R=20: R=40, siFLuc 20 nM; for Activity of nanoparticles in luciferase silencing: R=20, siFLuc, compared with parent CPP
Description: Transfection experiments. For Luciferase assay, the different cells (5,000 cells per well) were seeded 24 h before experiment into 96-well plates using the corresponding medium as described above. […] In the meantime, the growth medium covering the cells was replaced by 70 μL of fresh pre-warmed serum-free DMEM. […] After the addition of DMEM supplemented with 20% FBS (final FBS concentration=10%), cells were further incubated for 36 h and finally lysed for the luciferase detection. For transfection in the presence of serum, cells were incubated with nanoparticles in DMEM+10% FBS for 1.5 h at 37° C., and then DMEM supplemented with 10% FBS were added to the cells which were further incubated for 36 h before the final cell lyses for the luciferase detection.
Luciferase reporter gene silencing assay. The evaluation of siRNA delivery using the different vectors was carried out by measuring the remaining luciferase firefly (FLuc) activity in cell lysates. Briefly, after 36 h, the medium covering the cells was carefully removed and replaced by 50 μL of 0.5× Passive Lysis Buffer (PLB; Promega). After 30 min of shaking at 4° C., plates containing the cells were centrifuged (10 min, 1,800 rpm, 4° C.) and 5 μL of each cell lysate supernatant were finally transferred into a white 96-well plate. For the U87-FLuc-NLuc cells, both luciferase activities were quantified using a plate-reading luminometer (POLARstar Omega, BMG Labtech) using half-diluted Dual Luciferase Assay Reagents (Promega) as reported elsewhere (G. Aldrian, et al., (2017) J. Control. Release Off. J. Control. Release Soc. 256, 79-91). The results were expressed as percentage of relative light units (RLU) for each luciferase normalized first to non-treated cells (% FLuc and % NLuc) and then normalized to the value of % NLuc to obtain the Relative Luc Activity (% FLuc/% NLuc).
Cellular activity of CPP-based nanoparticles was evaluated in a luciferase screening assay, as previously described (L. N. Patel, et al., (2007) Pharm. Res. 24, 1977-1992; A. Elmquist, et al., (2001) Exp. Cell Res. 269, 237-244)). The knock-down efficiency of the different CPP:siRNA nanoparticles was performed on U87 cell line stably transfected for constitutive expression of FLuc/NLuc reporter genes (U87-FRT-CMV/Fluc-CMV/iRFP-IRES-NLuc).

[2] = Circular dichroism conformational analysis; type: physicochemical; settings: for Conformation by circular dichroism, PEPTIDE +siRNA: CPP:siRNA molar ratio R 20, CPP 40 μM; for Conformation by circular dichroism, PEPTIDE +siRNA +charged LUVs / Conformation by circular dichroism, PEPTIDE +siRNA +neutral LUVs: R 20, CPP:lipid r 10, CPP 40 μM; for Conformation by circular dichroism, PEPTIDE: peptide free in solution, CPP 40 μM, rc = random coiled
Description: Circular dichroism (CD) measurements. CD spectra were recorded on a Jasco 810 (Japan) dichrograph in quartz suprasil cells (Hellma) with an optical path of 1 mm for peptide in solution or in the presence of liposomes vesicles. The same concentrations of peptide (40 μM) was used for each condition. Spectra were obtained from 3 accumulations between 190 nm and 260 nm with a data pitch of 0.5 nm, a bandwidth of 1 nm and a standard sensitivity.
The predicted structures were then compared to experimental investigations. Circular dichroism spectra were recorded for the peptides free in solution, afterwards for the peptides in the presence of siRNA and then after the addition of liposomes.

U87 cells [3] = assay: LDH cytotoxicity measurement; type: cell-based, human; settings: incubation times 5 min to 90 min, 20 nM siFLuc
Description: Measurement of cell cytotoxicity. Evaluation of cytotoxicity induced by the nanoparticles was performed using Cytotoxicity Detection Kit^Plus (LDH, Roche Diagnostics) on 50 μL of supernatant, by following the manufacturer instructions.

living U87 cells = assay: Spinning disk internalization kinetics of Cy3b-labelled siRNA; type: cell-based, human; settings: siRNA-Cy3b 20 nM, R=20; for Incubation time to maximal fluorescence of delivered siRNA: maximal fluorescence 90%±5%, 900 s to 945 s
Description: For microscopy experiments, 300,000 U87 cells were seeded 24 h before imaging into glass bottom dishes (FluoroDish, World Precision Instruments). Before experiments, cells were washed twice with D-PBS and covered with 1,600 μL of complete medium. Afterwards, 400 μL of NPs (peptide:siRNA; R=20, siRNA=20 nM), formulated in an aqueous solution of 5% glucose were directly added on the cells as previously described.
For Spinning disk experiment, an inverted microscope (Nikon Ti Eclipse) coupled to a spinning disk (ANDOR) system was used to study the internalization kinetics of the NPs inside living cells. After the addition of the NPs, cells were maintained at 37° C. by a cage incubator (Okolab) and images were directly recorded every 5 s for 1,200 s with an EM-CCD camera (iXon Ultra) and projected with the Andor IQ3 software. Control experiments were performed to ensure that no emission bleed through was observed between the different channels. All images were treated with the ImageJ software.

[4] = Dynamic light scattering and zeta potential of nanoparticles; type: physicochemical; settings: for Mean size (nm) I (%) / Mean size (nm) Nb (%) / PdI: CPP:siRNA R = 20, 5% glucose; for Mean size (nm) I (%): intensity; for Mean size (nm) Nb (%): number
Description: Dynamic light scattering (DLS) and Zeta potential (ZP). CPPs:siRNA nanoparticles were evaluated with a Zetasizer NanoZS (Malvern) in terms of mean size (Z-average) of the particle distribution and of homogeneity (PdI). Zeta potential was determined in 5% glucose+5 mM of NaCl. All results were obtained from three independent measurements (three runs for each measurement at 25° C.).

[5] = as above; type: physicochemical
U87 cells [6] = assay: Cytotoxicity from Western blot internal control (vinculin) and total protein (BCA); type: cell-based, human; settings: siCDK4 50 nM
Description: Western blotting. Transfected cells washed in PBS, and lysed in RIPA buffer [50 mM Tris pH 8.0, 150 mM sodium chloride, 1% Triton X-100, 0.1% SDS (sodium dodecyl sulfate, Sigma-Aldrich), including protease inhibitors (SigmaFAST, Sigma-Aldrich)]. Cells were incubated for 5 min on ice with 130 μL/24-well lysis buffer. Thereafter, cells were scrapped and transferred in a 1.5 ml tube. After 5 min on ice, the cell lysates were centrifuged (10 min, 13,400 rpm, 4° C.), supernatants were collected and protein concentrations were determined using the Pierce BCA Protein Assay (ThermoFisher). Cell extracts (0.25-0.38 μg/μL) were separated by 4-20% Mini-PROTEAN® TGX™ Precast Gel (Bio-Rad). After electrophoresis, samples were transferred onto Trans-Blot® Turbo™ Mini PVDF Transfer membrane (Bio-Rad). As antibodies (all from Cell Signaling), we used anti-cyclin B1 mouse mAb V152, anti-CDK4 rabbit mAb D9G3E, anti-Vinculin rabbit mAb E1E9V, anti-mouse IgG HRP and anti-rabbit IgG HRP. […] The signal intensities of the blots were quantified by Image J.
The cytotoxicity could be observed in Western blot using the internal control (Vinculin expression: bars in dark gray) or the total protein concentrations (measured by the BCA kit, value in red).

[7] = test system: FLuc in U937 human macrophage; assay: Luciferase silencing on non-adherent macrophage suspension; type: cell-based; settings: 10-50 nM siRNA without CPP
Description: FIG. 15: Evaluation of CPP1:siRNA and CPP2:siRNA PBNs activity on cell suspensions. […] Incubation conditions: 10,000 cells/well, CPP:siRNA ratio=20:1 at the indicated siRNA concentration, incubation time 1.5 h in serum-free medium. Normalization of FLuc/NLuc values to the condition of untreated cells (N.T.). Abbreviations: siSCR=scrambled siRNA, siFLuc=firefly luciferase specific siRNA. n=2 independent experiments in triplicates. […] Incubation conditions: 10,000 cells/well, CPP:siRNA ratio=20:1 at the indicated siRNA concentration, incubation time 1.5 h in medium containing 10% serum. Normalization of FLuc/NLuc values to the condition of untreated cells (N.T.). Abbreviations: siSCR=scrambled siRNA, siFLuc=firefly luciferase specific siRNA. n=2 independent experiments in triplicates. […] Incubation conditions: 10,000 cells/well, CPP:siRNA ratio=20:1 at the indicated siRNA concentration (or the siRNA alone), incubation time 1.5 h in serum-free medium. Normalization of FLuc values to the condition of untreated cells (N.T.). n=2 independent experiments in triplicates. Next, the transfection potential of the CPP2:siFLuc on non-adherent cells such as the firefly luciferase stably transfected U937 human macrophage was evaluated (FIG. 15C). […] The silencing efficiency was determined with 40%, 80% and 100% for the siRNA concentrations of 10 nM, 20 nM and 50 nM, respectively.

Substance | Luciferase knock-down at R=40 relative to R=20 [1] | Conformation by circular dichroism, PEPTIDE +siRNA [2] | Conformation by circular dichroism, PEPTIDE +siRNA +charged LUVs [2] | Conformation by circular dichroism, PEPTIDE +siRNA +neutral LUVs [2] | Conformation by circular dichroism, PEPTIDE [2] | Mean size (nm) I (%) [4] [nm] | Mean size (nm) Nb (%) [4] [nm] | PdI [4] | also measured
LLWRLWRLLWRLWRLL-NH2 [CPP1, LLWRLWRLLWRLWRLL] | slightly increased | alpha helical structure; also recorded: helix | helix | helix | rc/helix | 73.3 ± 7.4 | 26.5 ± 4.1 |  | Incubation time for maximum and saturating FLuc silencing [1]: 60 min; Reduction in the luciferase activity in presence of serum [1]: around 70%; Reduction of FLuc activity [1]: 40%; Fold more active than C6M1-L in reduced luciferase expression [1]: 6 fold; Fold more active than C6M1 in reduced luciferase expression [1]: 3 fold; Cytotoxicity (U87 cells [3]): without any cytotoxicity; IC50 values of internalization (50%), incubation time (living U87 cells): 240 s; Incubation time to maximal fluorescence of delivered siRNA (living U87 cells): ~15 min; ZP (mV) ([4]; CPP:siRNA R = 20, 5% glucose with 5 mM NaCl): 42.2 ± 4.5 mV; Mean size of CPP1:MBBO nanoparticles (DLS) ([5]; R=5, 10 μM CPP1): 180 nm; Cytotoxicity (vinculin, total cellular proteins) (U87 cells [6]): without any cytotoxicity
RLLWRLWRLLWRLWRLLR (CPP1-6R) |  |  |  |  |  | 125.3 ± 65.1 | 23.3 ± 3.4 | 0.42 ± 0.08 | 
LLRLLRWWWRLLRLL-NH2 [CPP2, LLRLLRWWWRLLRLL] | slightly increased | alpha helical structure; also recorded: helix | helix | helix | turn/rc | 80.0 ± 4.9 | 35.7 ± 7.3 |  | Reduction of firefly luciferase expression ([1]; 1 nM to 20 nM siRNA, R 20, L or D isoform): dose-dependent manner; Incubation time for maximum and saturating FLuc silencing [1]: 60 min; Reduction in the luciferase activity in presence of serum [1]: around 70%; Reduction of FLuc activity [1]: 40%; Fold more active than C6M1-L in reduced luciferase expression [1]: 3.5 fold; Fold more active than C6M1 in reduced luciferase expression [1]: 2 fold; Increase of knock-down efficiency, dilution condition versus vol:vol condition ([1]; U87 cells, siFLuc 5-20 nM): 2 fold; Cytotoxicity (U87 cells [3]): without any cytotoxicity; IC50 values of internalization (50%), incubation time (living U87 cells): 185 s; Incubation time to maximal fluorescence of delivered siRNA (living U87 cells): ~15 min; ZP (mV) ([5]; CPP:siRNA R = 20, 5% glucose with 1 mM NaCl): 28.8 ± 0.9 mV
LLRLLRWWWWRLLRLL [CPP4] | slightly increased | alpha helical structure; also recorded: helix | helix | helix | turn | 122.0 ± 71.5 | 23.6 ± 7.9 |  | 
LLRLLRWWRLLRLL (CPP3) | slightly increased | alpha helical structure; also recorded: helix | helix | helix | turn |  |  | around 0.3 | 
RLLWRLW-----LWRLLR (RLLWRLWLWRLLR; CPP1-4R) |  |  |  |  |  | 1012 ± 984 | 422 ± 498 | 0.50 ± 0.04 | 
RLLRLLRWWWRLLRLLR (CPP2-6R) |  |  |  |  |  | 59.8 ± 9.3 | 25.9 ± 3.9 | 0.34 ± 0.03 | 
LRLRWWWRLRL (CPP2-1) |  |  |  |  |  |  |  |  | Activity of nanoparticles in luciferase silencing [1]: total inactivity
RLLRLLWWWLLRLLR-NH2 [CPP2-4R, RLLRLL-WWW-LLRLLR] |  |  |  |  |  |  |  |  | Cytotoxic effect inferred from variability of luciferase measurement ([1]; nanoparticle incubation): some cytotoxic effect
5′-CUU-ACG-CUG-AGU-ACU-UCG-AdTdT-3′ [siFLuc] |  |  |  |  |  |  |  |  | Knock-down efficiency of siRNA alone [7]: did not shown any knock-down efficiency
LLRLRWWWRLRLL (CPP2-2) |  |  |  |  |  |  |  |  | Activity of nanoparticles in luciferase silencing [1]: total inactivity
RGD-Ahx-LLRLLRWWWRLLRLL (RGD[Ahx]LLRLLRWWWRLLRLL) [R-CPP2] |  |  |  |  |  |  |  |  | Reduction in the expression of luciferase ([1]; RGD-grafted peptide, R=20): ~70%
